Experimental data from US20260242372A1, “NOVEL IMIDAZOPYRIDINE AND PYRAZOLOPYRIDINE SULFONAMIDE DERIVATIVES” (Hoffmann-La Roche Inc., priority 2022, published 2026).
pIC50: −log10 of the molar value.

Biological target: human GPR17 short isoform (Homo sapiens, UniProt Q13304)
Assay: GPR17 cAMP assay (hGPR17 cAMP, TR-FRET, antagonist mode)
Assay type: cell-based
Conditions: CHO-K1 cells stably expressing human GPR17 short isoform; EC80 of agonist MDL29,951; forskolin 15 μM; 30 min at room temperature

Sequence of human GPR17 short isoform (Q13304 29-367): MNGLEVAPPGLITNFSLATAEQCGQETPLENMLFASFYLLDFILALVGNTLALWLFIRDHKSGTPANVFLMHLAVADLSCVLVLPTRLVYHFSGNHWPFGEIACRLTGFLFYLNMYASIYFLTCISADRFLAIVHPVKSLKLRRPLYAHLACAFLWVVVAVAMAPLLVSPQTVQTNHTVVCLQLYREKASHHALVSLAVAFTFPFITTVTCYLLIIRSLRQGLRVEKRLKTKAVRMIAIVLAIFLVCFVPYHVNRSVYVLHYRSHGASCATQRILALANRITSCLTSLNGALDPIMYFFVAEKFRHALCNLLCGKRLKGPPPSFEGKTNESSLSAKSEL

Question: `COc1nc(NS(=O)(=O)c2cnn3cc(Br)ccc23)c(F)cc1OCC(F)F` [Example 81, 6-bromo-N-[5-(2,2-difluoroethoxy)-3-fluoro-6-methoxy-2-pyridyl]pyrazolo[1,5-a]pyridine-3-sulfonamide] was tested. Which pIC50 did it give?
Answer: Its pIC50 is 7.31.

Question: `COc1nc(C2CC2)c(F)cc1NS(=O)(=O)c1cnn2cc(Br)ccc12` [Example 82, 6-bromo-N-(6-cyclopropyl-5-fluoro-2-methoxy-3-pyridyl)pyrazolo[1,5-a]pyridine-3-sulfonamide] was tested. Which pIC50 did it give?
Answer: The pIC50 was 7.00.

Question: How did the pIC50 turn out when `COc1nc(OCC(F)F)c(F)cc1NS(=O)(=O)c1cnn2c1CCC(C)C2` (stereo not drawn) [Example 83, N-[6-(2,2-difluoroethoxy)-5-fluoro-2-methoxy-3-pyridyl]-6-methyl-4,5,6,7-tetrahydropyrazolo[1,5-a]pyridine-3-sulfonamide] was run?
Answer: The pIC50 was 7.00.

Question: How did the pIC50 turn out when `COc1nc(OCC(F)F)c(F)cc1NS(=O)(=O)c1cnn2c(C#N)c(C)ccc12` [Example 84, 7-cyano-N-[6-(2,2-difluoroethoxy)-5-fluoro-2-methoxy-3-pyridyl]-6-methyl-pyrazolo[1,5-a]pyridine-3-sulfonamide] was run?
Answer: Its pIC50 is 6.89.

Question: `O=S(=O)(Nc1cc(F)c(OC(F)F)cc1F)c1cnn2cc(Br)ccc12` [Example 85, 6-bromo-N-[4-(difluoromethoxy)-2,5-difluoro-phenyl]pyrazolo[1,5-a]pyridine-3-sulfonamide] was tested. Which pIC50 did it give?
Answer: The pIC50 was 6.60.

Question: `COc1nc(C2COC2)c(F)cc1NS(=O)(=O)c1cnn2cc(Br)ccc12` [Example 87, 6-bromo-N-[5-fluoro-2-methoxy-6-(oxetan-3-yl)-3-pyridyl]pyrazolo[1,5-a]pyridine-3-sulfonamide] was tested. Which pIC50 did it give?
Answer: Its pIC50 is 6.44.

Question: `COc1nc(OCC(F)F)c(F)cc1NS(=O)(=O)c1cnn2c1COC(C)C2` (stereo not drawn) [Example 88, N-[6-(2,2-difluoroethoxy)-5-fluoro-2-methoxy-3-pyridyl]-6-methyl-6,7-dihydro-4H-pyrazolo[5,1-c][1,4]oxazine-3-sulfonamide] was tested. Which pIC50 did it give?
Answer: The pIC50 was 6.16.

Question: With `COc1nc(NS(=O)(=O)c2cnc3cc(Cl)ccn23)nc(OC)c1OCCF` [Example 89, 7-chloro-N-[5-(2-fluoroethoxy)-4,6-dimethoxy-pyrimidin-2-yl]imidazo[1,2-a]pyridine-3-sulfonamide] as the compound, how does the pIC50 read?
Answer: The pIC50 was 6.86.

Question: How did the pIC50 turn out when `COc1nc(NS(=O)(=O)c2cnc3cc(Cl)ccn23)nc(OC)c1OCC(F)F` [Example 90, 7-chloro-N-[5-(2,2-difluoroethoxy)-4,6-dimethoxy-pyrimidin-2-yl]imidazo[1,2-a]pyridine-3-sulfonamide] was run?
Answer: Its pIC50 is 6.94.

Question: `COc1nc(NS(=O)(=O)c2cnc3cc(Br)ccn23)ncc1OCCF` [Example 91, 7-bromo-N-[5-(2-fluoroethoxy)-4-methoxy-pyrimidin-2-yl]imidazo[1,2-a]pyridine-3-sulfonamide] was tested. Which pIC50 did it give?
Answer: The pIC50 was 6.68.

Question: `N#CCc1cc(F)c(NS(=O)(=O)c2cnn3cc(Br)ccc23)cc1F` [Example 92, 6-bromo-N-[4-(cyanomethyl)-2,5-difluoro-phenyl]pyrazolo[1,5-a]pyridine-3-sulfonamide] was tested. Which pIC50 did it give?
Answer: The pIC50 was 6.94.

Question: How did the pIC50 turn out when `COc1cc(CC#N)c(F)cc1NS(=O)(=O)c1cnc2cc(C3CC3)ccn12` [Example 93, N-[4-(cyanomethyl)-5-fluoro-2-methoxy-phenyl]-7-cyclopropyl-imidazo[1,2-a]pyridine-3-sulfonamide] was run?
Answer: Its pIC50 is 8.40.

Question: `COc1nc(OCC(F)F)c(F)cc1NS(=O)(=O)c1cnc2cc(C3CC3)ccn12` [Example 94, 7-cyclopropyl-N-[6-(2,2-difluoroethoxy)-5-fluoro-2-methoxy-3-pyridyl]imidazo[1,2-a]pyridine-3-sulfonamide] was tested. Which pIC50 did it give?
Answer: The pIC50 was 8.05.

Question: `COc1nc(OC(F)F)c(F)cc1NS(=O)(=O)c1cnc2cc(C3CC3)ccn12` [Example 95, 7-cyclopropyl-N-[6-(difluoromethoxy)-5-fluoro-2-methoxy-3-pyridyl]imidazo[1,2-a]pyridine-3-sulfonamide] was tested. Which pIC50 did it give?
Answer: The pIC50 was 7.89.

Question: How did the pIC50 turn out when `COc1nc(NS(=O)(=O)c2cnc3cc(C4CC4)ccn23)c(F)cc1CC#N` [Example 96, N-[5-(cyanomethyl)-3-fluoro-6-methoxy-2-pyridyl]-7-cyclopropyl-imidazo[1,2-a]pyridine-3-sulfonamide] was run?
Answer: Its pIC50 is 7.42.

Question: How did the pIC50 turn out when `COc1nc(NS(=O)(=O)c2cnc3nc(C4CC4)ccn23)c(F)cc1OC(F)F` [Example 97, 7-cyclopropyl-N-[5-(difluoromethoxy)-3-fluoro-6-methoxy-2-pyridyl]imidazo[1,2-a]pyrimidine-3-sulfonamide] was run?
Answer: The pIC50 was 7.64.

Question: With `COc1c(C)ccn2c(S(=O)(=O)Nc3cc(F)c(C#N)cc3F)cnc12` [Example 98, N-(4-cyano-2,5-difluoro-phenyl)-8-methoxy-7-methyl-imidazo[1,2-a]pyridine-3-sulfonamide] as the compound, how does the pIC50 read?
Answer: The pIC50 was 6.09.

Question: `COc1nc(NS(=O)(=O)c2cnn3cc(Br)ccc23)c(F)cc1OC(F)F` [Example 99, 6-bromo-N-[5-(difluoromethoxy)-3-fluoro-6-methoxy-2-pyridyl]pyrazolo[1,5-a]pyridine-3-sulfonamide] was tested. Which pIC50 did it give?
Answer: Its pIC50 is 8.10.

Question: `COc1nc(OCC(F)F)c(F)cc1NS(=O)(=O)c1cnc2cc(C3COC3)ccn12` [Example 100, N-[6-(2,2-difluoroethoxy)-5-fluoro-2-methoxy-3-pyridyl]-7-(oxetan-3-yl)imidazo[1,2-a]pyridine-3-sulfonamide] was tested. Which pIC50 did it give?
Answer: The pIC50 was 7.43.

Question: `COc1cc(CC#N)c(F)cc1NS(=O)(=O)c1cnc2cc(C3COC3)ccn12` [Example 101, N-[4-(cyanomethyl)-5-fluoro-2-methoxy-phenyl]-7-(oxetan-3-yl)imidazo[1,2-a]pyridine-3-sulfonamide] was tested. Which pIC50 did it give?
Answer: The pIC50 was 6.75.

Question: `COc1nc(NS(=O)(=O)c2cnc3cc(C4COC4)ccn23)c(F)cc1CC(F)F` [Example 102, N-[5-(2,2-difluoroethyl)-3-fluoro-6-methoxy-2-pyridyl]-7-(oxetan-3-yl)imidazo[1,2-a]pyridine-3-sulfonamide] was tested. Which pIC50 did it give?
Answer: Its pIC50 is 6.70.

Question: How did the pIC50 turn out when `COc1nc(OCC(F)F)c(F)cc1NS(=O)(=O)c1cnc2nc(C3COC3)ccn12` [Example 103, N-[6-(2,2-difluoroethoxy)-5-fluoro-2-methoxy-3-pyridyl]-7-(oxetan-3-yl)imidazo[1,2-a]pyrimidine-3-sulfonamide] was run?
Answer: Its pIC50 is 6.31.

Question: `COc1nc(OCC(F)F)c(F)cc1NS(=O)(=O)c1cnn2cc(C3COC3)ccc12` [Example 104, N-[6-(2,2-difluoroethoxy)-5-fluoro-2-methoxy-3-pyridyl]-6-(oxetan-3-yl)pyrazolo[1,5-a]pyridine-3-sulfonamide] was tested. Which pIC50 did it give?
Answer: Its pIC50 is 6.51.

Question: `COc1nc(OCC(F)F)c(F)cc1NS(=O)(=O)c1cnc2nc(Br)ccn12` [Example 105, 7-bromo-N-[6-(2,2-difluoroethoxy)-5-fluoro-2-methoxy-3-pyridyl]imidazo[1,2-a]pyrimidine-3-sulfonamide] was tested. Which pIC50 did it give?
Answer: Its pIC50 is 7.57.

Question: `COc1nc(OCC(F)F)c(F)cc1NS(=O)(=O)c1cnc2cc(C(C)(C)O)ccn12` [Example 106, N-[6-(2,2-difluoroethoxy)-5-fluoro-2-methoxy-3-pyridyl]-7-(1-hydroxy-1-methyl-ethyl)imidazo[1,2-a]pyridine-3-sulfonamide] was tested. Which pIC50 did it give?
Answer: Its pIC50 is 7.42.

Question: How did the pIC50 turn out when `COc1nc(OCC(F)F)c(F)cc1NS(=O)(=O)c1cnc2n1CC[C@@H](C)C2` [Example 108, (7R)—N-[6-(2,2-difluoroethoxy)-5-fluoro-2-methoxy-3-pyridyl]-7-methyl-5,6,7,8-tetrahydroimidazo[1,2-a]pyridine-3-sulfonamide] was run?
Answer: The pIC50 was 7.80.

Question: How did the pIC50 turn out when `COc1nc(OCC(F)F)c(F)cc1NS(=O)(=O)c1cnc2n1CC[C@H](C)C2` [Example 109, (7S)—N-[6-(2,2-difluoroethoxy)-5-fluoro-2-methoxy-3-pyridyl]-7-methyl-5,6,7,8-tetrahydroimidazo[1,2-a]pyridine-3-sulfonamide] was run?
Answer: The pIC50 was 7.46.
